Data taken from paper PMC7617869, “Molecular glues that inhibit deubiquitylase activity and inflammatory signaling” (Nature Structural & Molecular Biology, 2025).
Several values for one entry are separate records, joined by “and”; a condition that tells them apart may be missing. Identical values can stand only once. Blank lines part the entries; values can stand above or below the compound they belong to.

Key:
[1] = system: ISRE in THP-1 cells (TLR9 agonist ODN 2216); experiment: THP-1 ISRE luciferase reporter, ODN 2216 stimulation; format: cell-based, human; details: ODN 2216 1 µM, 4 μM compound, 16 h
Experimental: THP-1 in vitro experiments
THP-1-DualTM cells (InvivoGen), derived from a human monocytic cell line, isolated from a patient with acute monocytic leukaemia, were cultured as per manufacturer’s guidance. Cells were seeded at 1x10^6 cells/mL in RPMI1640 media containing 10% fetal bovine serum (FBS), 1% penicillin-streptomycin (PS) (Gibco Laboratories) with DMSO (0.1%) (control) or in media containing JMS-175- […]
ng/mL) (Merck Life Science), ODN 2216 (1 µM) (Miltenyi Biotec), or Poly:IC (1 µg/mL) (InvivoGen).
Tofacitinib (Cambridge Biosciences) at 0.4 µM was used for comparison against a known JAK inhibitor.
Cells were centrifuged at 300 g for 5 minutes. Supernatant was removed and subjected to simultaneous study of the NF -κB pathway, by monitoring the activity of secreted alkaline phosphatase reporter (SEAP), and the IRF pathway, by assessing the activity o f a secreted Lucia luciferase using QUANTI - Blue ™ Solution and QUANTI -Luc™ 4 Lucia/Gaussia (InvivoGen), respectively, as per manufacturer’s instructions. Pelleted cells were used for FACS analysis using IFNα/β R1 APC-conjugated antibody or isotype control (Biotechne, FAB245A and IC002A), or unstained staining procedure with and without Zombie GreenTM (Biolegend). Samples were analysed using CytoFlex LX (Beckman) (50,000 live cells per condition). Median fluorescence intensity for APC channel gated on single cell live cells was analysed and compared as a percentage to control (no stimulation condition). […]

BRISC (FL) = biological target: T1, BRISC (FL) (Homo sapiens, UniProt P46736+Q15018+Q9NXR7); experiment: In-gel deubiquitylation assay, TAMRA-labeled K63-tetraubiquitin, BRISC; format: biochemical; details: 10 μM or 100 μM inhibitor
T1 construct: full-length BRISC (FL), ARISC (FL); made in house; host or cells: Spodoptera frugiperda Sf9 insect cells (MultiBac)
Experimental: The inhibitor capzimin (Merck) was diluted in 1 mM DTT and incubated for 30 min at room temperature to reduce disulfide bonds required for inhibitor activity. […] DUBs were incubated with 750 nM TAMRA-labeled K63-tetraubiquitin (LifeSensors, SI6304T) for 10 min at 30 °C. Reactions were quenched by adding 2.5 μl of 4× SDS–PAGE loading dye (240 mM Tris-HCl pH 6.8, 40% v/v glycerol, 8% w/v SDS, 0.04% w/v bromophenol blue and 5% v/v β-mercaptoethanol). The samples were resolved on 4–12% NuPAGE Bis–Tris gels (Thermo Fisher Scientific). Gels were scanned using an iBright FL 1500 (Thermo Fisher Scientific) (excitation, 515–545 nm; emission, 568–617 nm; exposure, 500 ms).

BRISC BRCC45 C245A = BRISC BRCC45 C245A (Homo sapiens, UniProt P46736+Q15018+Q9NXR7, C245A); experiment: BRISC mutant IQF assay: BRCC45 C245A; format: biochemical
Experimental: (§1) IQF assays were performed in DUB reaction buffer containing 50 mM HEPES–NaOH pH 7.0, 100 mM NaCl, 0.1 mg ml^−1 BSA, 1 mM DTT and 0.03% v/v Brij-35. […] The final concentration of BRISC WT, all BRISC mutants, HsBRISCΔLoop, MmBRISC and DrBRISCΔNΔC was 1 nM. Other enzymes were tested at the following concentrations: 5 nM ARISC (FL), 10 nM CfBRISCΔNΔC, 250 nM AMSH* (ref. [43]), 500 nM USP2 and 1 μM trypsin (Sigma, 9002-07-7). For Michaelis–Menten experiments, 1 nM BRISC with 0–1 μM IQF K63-linked diubiquitin substrate was used. Michaelis–Menten analyses and Lineweaver–Burk plots were calculated using GraphPad Prism (version 9.0).
(§2) To assess enzymatic activity, BRISC complexes were diluted to concentrations between 1 nM and 50 nM. […] Then, 20-μl enzyme reactions were carried out in 384-well black flat-bottom low-flange plates (Corning, 35373). DUB activity was measured using IQF K63-linked diubiquitin (LifeSensors, DU6303) at 50 nM. Cleaved diubiquitin was monitored by measuring fluorescence intensity (excitation, 544 nm; emission, 575 nm; dichroic mirror, 560 nm). Fluorescence intensity was measured every minute for 30 min at 30 °C. Fluorescence intensity units were plotted against time to generate a linear reaction progress curve, where the initial velocity (V0) corresponds to the gradient of the curve (typically achieved within 15 min). IC50 values were calculated using the GraphPad Prism (version 9.0) built-in dose–response equation for inhibitor concentration versus response (variable slope).

BRISC BRCC45 F140A = BRISC BRCC45 F140A (Homo sapiens, UniProt P46736+Q15018+Q9NXR7, F140A); experiment: BRISC mutant IQF assay: BRCC45 F140A; format: biochemical
Experimental: as §1, §2

BRISC Abraxas2 T140A = BRISC Abraxas2 T140A (Homo sapiens, UniProt P46736+Q15018+Q9NXR7, T140A); experiment: BRISC mutant IQF assay: Abraxas2 T140A; format: biochemical
Experimental: as §1, §2

BRISC Abraxas2 I133W = BRISC Abraxas2 I133W (Homo sapiens, UniProt P46736+Q15018+Q9NXR7, I133W); experiment: BRISC mutant IQF assay: Abraxas2 I133W; format: biochemical
Experimental: as §1
To assess enzymatic activity, BRISC complexes were diluted to concentrations between 1 nM and 50 nM. […] DUB activity was measured using IQF K63-linked diubiquitin (LifeSensors, DU6303) at 50 nM. Cleaved diubiquitin was monitored by measuring fluorescence intensity (excitation, 544 nm; emission, 575 nm; dichroic mirror, 560 nm). Fluorescence intensity was measured every minute for 30 min at 30 °C. Fluorescence intensity units were plotted against time to generate a linear reaction progress curve, where the initial velocity (V0) corresponds to the gradient of the curve (typically achieved within 15 min). IC50 values were calculated using the GraphPad Prism (version 9.0) built-in dose–response equation for inhibitor concentration versus response (variable slope).

BRISC BRCC36 R167A+L169A = BRISC BRCC36 R167A+L169A (Homo sapiens, UniProt P46736+Q15018+Q9NXR7, L169A/R167A); experiment: BRISC mutant IQF assay: BRCC36 R167A+L169A; format: biochemical; details: read-out: Normalised V0
Description: Supplement 41594_2025_1517_MOESM5_ESM.xlsx, sheet "Fig. 4c" | column: Normalised V0

BRISC Abraxas2 T135K = BRISC Abraxas2 T135K (Homo sapiens, UniProt P46736+Q15018+Q9NXR7, T135K); experiment: BRISC mutant IQF assay: Abraxas2 T135K; format: biochemical
Experimental: as §1, §2

[2] = FX-171-C 0.0035 μM, read-out: Normalised V0
[3] = FX-171-C 0.035 μM, read-out: Normalised V0
[4] = FX-171-C 0.35 μM, read-out: Normalised V0
[5] = FX-171-C 6.25 μM, read-out: Normalised V0
[6] = FX-171-C 12.5 μM, read-out: Normalised V0
[7] = FX-171-C 25 μM, read-out: Normalised V0
[8] = FX-171-C 3.1 μM, read-out: Normalised V0

Compound: Cn1cc(NC(=O)c2c(Cl)cccc2Cl)c(C(=O)NC2CCN(C(=O)c3c(Cl)cccc3Cl)CC2)n1 [AP-5-145]
- ISRE luciferase signal in THP-1 supernatant [1]: 228.667 and 315.667 and 335.333

- inhibition of BRISC cleavage of K63-linked tetraubiquitin (BRISC (FL)): inhibit
Compound: O=C(NC1CCNCC1)c1nn(C(=O)c2c(Cl)cccc2Cl)cc1NC(=O)c1c(Cl)cccc1Cl [JMS-175-2]

- IC50 (BRISC BRCC45 C245A): 31 µM
- inhibitor sensitivity vs BRISC WT (BRISC BRCC45 C245A): reduced sensitivity to inhibition
- remaining activity at 0.0035 µM (BRISC BRCC45 C245A; [2]): 97.7%
- remaining activity at 0.035 µM (BRISC BRCC45 C245A; [3]): 74.6%
- remaining activity at 0.35 µM (BRISC BRCC45 C245A; [4]): 94.7%
- remaining activity at 6.25 µM (BRISC BRCC45 C245A; [5]): 66.4%
- remaining activity at 12.5 µM (BRISC BRCC45 C245A; [6]): 43.3%
- remaining activity at 25 µM (BRISC BRCC45 C245A; [7]): 46.6%
- IC50 (BRISC BRCC45 F140A): 4.3 µM
- inhibitor sensitivity vs BRISC WT (BRISC BRCC45 F140A): reduced sensitivity to inhibition
- remaining activity at 0.0035 µM (BRISC BRCC45 F140A; [2]): 96%
- remaining activity at 0.035 µM (BRISC BRCC45 F140A; [3]): 92.5%
- remaining activity at 0.35 µM (BRISC BRCC45 F140A; [4]): 89.9%
- remaining activity at 3.1 µM (BRISC BRCC45 F140A; [8]): 51.2%
- remaining activity at 6.25 µM (BRISC BRCC45 F140A; [5]): 43.9%
- remaining activity at 12.5 µM (BRISC BRCC45 F140A; [6]): 26.9%
- remaining activity at 25 µM (BRISC BRCC45 F140A; [7]): 14.2%
- remaining activity at 100 µM (BRISC BRCC45 F140A; FX-171-C 100 μM, read-out: Normalised V0): 5.06%
- IC50 (BRISC Abraxas2 T140A; Abraxas 2 T140A): 5 µM
- inhibitor sensitivity vs BRISC WT (BRISC Abraxas2 T140A; Abraxas 2 T140A): IC50 tenfold higher than BRISC WT
- remaining activity at 0.0035 µM (BRISC Abraxas2 T140A; Abraxas2 T140A, FX-171-C 0.0035 μM, read-out: Normalised V0): 89.1%
- remaining activity at 0.35 µM (BRISC Abraxas2 T140A; Abraxas2 T140A, FX-171-C 0.35 μM, read-out: Normalised V0): 99.5%
- remaining activity at 3.1 µM (BRISC Abraxas2 T140A; Abraxas2 T140A, FX-171-C 3.1 μM, read-out: Normalised V0): 53.4%
- IC50 (BRISC Abraxas2 I133W): 2.3 µM
- remaining activity at 0.35 µM (BRISC BRCC36 R167A+L169A; FX-171-C 0.35 μM): 98.6%
- remaining activity at 25 µM (BRISC BRCC36 R167A+L169A; FX-171-C 25 μM): 85.6%
- IC50 (BRISC Abraxas2 T135K): 1.5 µM
- remaining activity at 0.35 µM (BRISC Abraxas2 T135K; [4]): 73.4%
- remaining activity at 3.1 µM (BRISC Abraxas2 T135K; [8]): 20.9%
- inhibition of BRISC cleavage of K63-linked tetraubiquitin (BRISC (FL)): inhibit
Compound: O=C(NC1C2CNCC21)c1nn(C(=O)c2c(Cl)cccc2Cl)cc1NC(=O)c1c(Cl)cccc1Cl (centres unmarked) [FX-171-C]
- inhibitor sensitivity vs BRISC WT (BRISC Abraxas2 I133W): moderate to little effect on inhibitor sensitivity
- inhibitor sensitivity vs BRISC WT (BRISC Abraxas2 T135K): moderate to little effect on inhibitor sensitivity
- ISRE luciferase signal in THP-1 supernatant [1]: 149.667 and 263.333 and 287.667
